# In US11420959B2, “DACOS type NNRTIS amino acid ester derivative, preparation method thereof, pharmaceutical composition, and application thereof” (YUNNAN UNIVERSITY, priority 2018, dated 2022):
# Like-named read-outs stand apart in the source and are kept apart here.
# How the values were obtained:
# [1] = Cytotoxicity experiment (MTT method) on C8166 cells; type: cell-based; settings: human
# Description: Cytotoxicity experiment: The toxicity of the compounds on C8166 cells was determined by MTT method. In a 96-well cell culture plate, the compounds were subjected to 5-fold serial dilution and 100 μL of C8166 cell suspension (4×10^5/mL) was added into each well. Three replicate wells were set for each concentration. At the same time, a cell control group without drugs and drug control groups with Zidovudine (AZT) or Nevirapine (NVP) were set. The cells were incubated at 37° C. in a 5% CO2 incubator for three days, followed by the addition of MTT solution into each well, and then the cells were incubated at 37° C. for 4 hours. 15% SDS-50% DMF was added to each well and the cells were incubated at 37° C. in a 5% CO2 incubator overnight. After mixing evenly, the OD values were measured by BIO-TEK ELx800 ELISA instrument (determination wavelength: 570 nm; reference wavelength: 630 nm).
# [2] = test system: HIV-1IIIB; assay: Syncytium inhibition experiment, C8166 cells infected with HIV-1IIIB; type: cell-based; settings: Human immunodeficiency virus 1, 72 h, syncytium count, three days
# Description: The specific method was described below.
# Syncytium inhibition experiment: 100 μL of C8166 cell suspension (4×10^5/mL) was inoculated into each well of a 96-well cell culture plate containing 5-fold serial dilutions of the compounds, followed by addition of HIV-1IIIB diluted supernatant (MOI=0.04). Three replicate wells were set for each serial concentration. […] The cells were incubated at 37° C. in a 5% CO2 incubator for three days. The number of the syncytia was counted in five non-overlapping fields of view by using an inverted microscope (100×). […] Calculation formula: cytopathic inhibition rate (%)=(1−number of syncytia in experimental wells/number of syncytia in control well)×100%.
# [3] = due to strong hydrophobicity; cited from earlier work
Compound,CC50 at 3 days [1] [µM],EC50 [2] [µM],bioavailability [3],"CC50 at 3 days ([1]; C8166 cells, MTT, three days, read-out: CC50) [µM]"
"Cc1cn([C@H]2C[C@H](N=[N+]=[N-])[C@@H](CO)O2)c(=O)[nH]c1=O [AZT, Zidovudine, reference compound]",> 749,,,
CCc1c(CC2CCCCC2)nc(SCC(=O)c2ccc(OC(=O)CN)cc2)[nH]c1=O [Compound I-1],138,0.004,,
CCc1c(CC2CCCCC2)nc(SCC(=O)c2ccc(OC(=O)C(N)CC(C)C)cc2)[nH]c1=O (stereo not shown) [Compound I-2],112,0.003,,
CCc1c(CC2CCCCC2)nc(SCC(=O)c2ccc(OC(=O)[C@H](N)[C@H](C)CC)cc2)[nH]c1=O [Compound I-3],134,0.005,,
CCc1c(CC2CCCCC2)nc(SCC(=O)c2ccc(OC(=O)C3CCCN3)cc2)[nH]c1=O (stereo not shown) [Compound I-4],95.4,0.012,,
CCc1c(CC2CCCCC2)nc(SCC(=O)c2ccc(OC(=O)C(N)Cc3c[nH]c4ccccc34)cc2)[nH]c1=O (stereo not shown) [Compound I-5],95.2,0.004,,
CCc1c(CC2CCCCC2)nc(SCC(=O)c2ccc(OC(=O)[C@@H](C)N)cc2)[nH]c1=O [Compound I-6],96,0.004,,
CCc1c(CC2CCCCC2)nc(SCC(=O)c2ccc(OC(=O)C(N)Cc3ccccc3)cc2)[nH]c1=O (stereo not shown) [Compound I-7],90.1,0.009,,
CCc1c(CC2CCCCC2)nc(SCC(=O)c2ccc(OC(=O)C(N)CCSC)cc2)[nH]c1=O (stereo not shown) [Compound I-8],116,0.004,,
CCc1c(CC2CCCCC2)nc(SCC(=O)c2ccc(OC(=O)C(N)CCCCN)cc2)[nH]c1=O (stereo not shown) [Compound I-9],101,0.006,,
CCc1c(CC2CCCCC2)nc(SCC(=O)c2ccc(OC(=O)C(N)Cc3cnc[nH]3)cc2)[nH]c1=O (stereo not shown) [Compound I-10],199,0.012,,
CCc1c(CC2CCCCC2)nc(SCC(=O)c2ccc(OC(=O)C(N)CCC(N)=O)cc2)[nH]c1=O (stereo not shown) [Compound I-11],118,0.005,,
CCc1c(CC2CCCCC2)nc(SCC(=O)c2ccc(OC(=O)C(N)CC(N)=O)cc2)[nH]c1=O (stereo not shown) [Compound I-12],120,0.004,,
CCc1c(CC2CCCCC2)nc(SCC(=O)c2ccc(OC(=O)C(N)C(C)C)cc2)[nH]c1=O (stereo not shown) [Compound I-13],94.8,0.003,,
CC[C@@H](C)[C@@H](N)C(=O)Oc1ccc(C(=O)CSc2nc(CC3CCCCC3)c(C(C)C)c(=O)[nH]2)cc1 [Compound I-14],186,0.004,,
CC(C)c1c(CC2CCCCC2)nc(SCC(=O)c2ccc(OC(=O)C3CCCN3)cc2)[nH]c1=O (stereo not shown) [Compound I-15],98.3,0.012,,
CC(C)c1c(CC2CCCCC2)nc(SCC(=O)c2ccc(OC(=O)C(N)Cc3c[nH]c4ccccc34)cc2)[nH]c1=O (stereo not shown) [Compound I-16],118,0.004,,
CC(C)c1c(CC2CCCCC2)nc(SCC(=O)c2ccc(OC(=O)CN)cc2)[nH]c1=O [Compound I-17],191,0.003,,
CC(C)CC(N)C(=O)Oc1ccc(C(=O)CSc2nc(CC3CCCCC3)c(C(C)C)c(=O)[nH]2)cc1 (stereo not shown) [Compound I-18],97.4,0.004,,
CC(C)c1c(CC2CCCCC2)nc(SCC(=O)c2ccc(OC(=O)C(N)C(C)C)cc2)[nH]c1=O (stereo not shown) [Compound I-19],126,0.003,,
CSCCC(N)C(=O)Oc1ccc(C(=O)CSc2nc(CC3CCCCC3)c(C(C)C)c(=O)[nH]2)cc1 (stereo not shown) [Compound I-20],153,0.003,,
CC(C)c1c(CC2CCCCC2)nc(SCC(=O)c2ccc(OC(=O)C(N)Cc3ccccc3)cc2)[nH]c1=O (stereo not shown) [Compound I-21],95,0.004,,
Cc1c(CC2CCCCC2)nc(SCC(=O)c2ccc(OC(=O)C(N)Cc3ccccc3)cc2)[nH]c1=O (stereo not shown) [Compound I-22],98.6,0.01,,
Cc1c(CC2CCCCC2)nc(SCC(=O)c2ccc(OC(=O)CN)cc2)[nH]c1=O [Compound I-23],> 200,0.008,,
CSCCC(N)C(=O)Oc1ccc(C(=O)CSc2nc(CC3CCCCC3)c(C)c(=O)[nH]2)cc1 (stereo not shown) [Compound I-24],199,0.012,,
CCc1c(CC2CCCCC2)nc(SCC(=O)c2ccccc2)[nH]c1=O [DB02],,,low,
"Cc1ccnc2c1NC(=O)c1cccnc1N2C1CC1 [NVP, Nevirapine, reference compound]",,0.013,,504
